Laboratory results from patent US20260256140A1, “BIPHENYL COMPOUNDS CONTAINING SUBSTITUTED SULFIDE (SULFOXIDE) GROUPS AND USES THEREOF” (METISA BIOTECHNOLOGY CO., LTD, priority 2021, published 2026).

Columns and labels:
Assay type in all cases: in vivo
Mythimna separata = assay: Activity against Mythimna separata, Airbrush spray on maize leaf pieces; details: 500 mg/L, 3 days after administration, 3rd-instar larvae
Description: Insecticidal activity determination experiments were conducted on several insects using the compound of the present invention and control compounds KC1, KC2, and KC3. Determination methods were described below. The compounds to be determined were each dissolved in a mixed solvent of acetone/methanol (1:1), and diluted using water containing 0.1% (wt) tween-80 to desired concentrations. With Mythimna separata and Plutella xylostella as targets, Airbrush spray method was adopted for activity determination. Determination Method: maize leaves were cut into 2 cm leaf pieces, and the front and back of each leaf piece were sprayed under an Airbrush spray treatment pressure of 10 psi (approximate to 0.7 kg/cm^2) and with a spray volume of 0.5 mL. After drying in the shade, 10 3rd-instar larvae were inoculated for each treatment, and each treatment was repeated for 3 times. After the treatment, the leaf pieces were put into an observation chamber at 25° C. and with a relative humidity of 60% to 70%, and the number of living larvae was investigated 3 days after the administration of the compounds, and the death rates were calculated.

Tetranychus cinnabarinus = assay: Greenhouse acaricidal activity determination on Phaseolus vulgaris seedlings; details: 3 days after administration, parallel comparison
Description: Greenhouse acaricidal activity determination was carried out on the compounds of the present invention. A determination method was described below. […] Two true leaves of Phaseolus vulgaris seedlings were inoculated with adult Tetranychus cinnabarinus and a basic number was investigated. An entire seedling was then sprayed using a hand-held sprayer. Each treatment was repeated for 3 times. After the treatment, the seedlings were placed into a standard observation chamber, and the number of living mites was investigated 72 hours later, and the death rates were calculated. Parallel comparison experiments on acaricidal activity were conducted for Tetranychus cinnabarinus using the compounds 1.22, 1.23, and 1.24 and control compounds (3 days after the administration of the compounds), and the determination method was as described above; and the results were shown in Table 14: […]

Plutella xylostella = assay: Activity against Plutella xylostella, Airbrush spray on cabbage leaf discs; details: 500 mg/L, 3 days after administration, 3rd-instar larvae
Description: Insecticidal activity determination experiments were conducted on several insects using the compound of the present invention and control compounds KC1, KC2, and KC3. Determination methods were described below. The compounds to be determined were each dissolved in a mixed solvent of acetone/methanol (1:1), and diluted using water containing 0.1% (wt) tween-80 to desired concentrations. With Mythimna separata and Plutella xylostella as targets, Airbrush spray method was adopted for activity determination. Determination Method: cabbage leaves were formed into leaf discs having a diameter of 2 cm using a puncher, and the front and back of each leaf disc were sprayed under an Airbrush spray treatment pressure of 10 psi (approximate to 0.7 kg/cm^2) and with a spray volume of 0.5 mL. After drying in the shade, 10 3rd-instar larvae were inoculated for each treatment, and each treatment was repeated for 3 times. After the treatment, the leaf discs were placed into an observation chamber at 25° C. and with a relative humidity of 60% to 70%, and the number of living larvae was investigated 3 days after the administration of the compounds, and the death rates were calculated.

Row | Structure (SMILES) | death rate for Mythimna separata (Mythimna separata) | Death Rate (%, 3 days after the administration of the compounds) 1.25 mg/L (Tetranychus cinnabarinus) | Death Rate (%, 3 days after the administration of the compounds) 2.5 mg/L (Tetranychus cinnabarinus) | death rate for Plutella xylostella (Plutella xylostella)
1 | Cc1cc(F)c(-c2cc(SCC(F)(F)F)c(C)cc2F)cc1SCC(F)(F)F [KC1] | 0% | 22.9% | 52.0% | 0%
2 | Cc1cc(F)c(-c2cc([S+]([O-])CC(F)(F)F)c(C)cc2F)cc1SCC(F)(F)F (stereo not drawn) [KC2] | 0% | 0% | 50.0% | 0%
3 | Cc1cc(F)c(-c2cc([S+]([O-])CC(F)(F)F)c(C)cc2F)cc1[S+]([O-])CC(F)(F)F (stereo not drawn) [KC3] | 0% | 0% | 0% | 0%
